This note sets out measurements from US20220372560A1, “METHODS FOR DETECTING OLIGONUCLEOTIDES” (Takeda Pharmaceutical Company Limited, priority 2019, published 2022).

This data set is described as follows: Persistence of PMO and P-PMO in serum and tissues two weeks post-last dose (FIGS. 5a, 5b). It is filed as in vivo. As to conditions: mice. How it is done: PMO or P-PMO serial dilutions for standard curves and quality controls in 5.0% mouse serum, and 5.0 mg/ml or 1.0 mg/ml tissue homogenates were made using 1×TE buffer supplemented with 0.1% v/v Triton X-100 with a starting concentration of 51.2 nM PMO/P-PMO. Serum samples were diluted 20-fold, and tissues were homogenized and diluted to 5.0 mg/ml or 1.0 mg/ml tissue homogenates with the same buffer. 200 μL of calibrator solution, quality control, and/or sample were treated with 20 μL of 40 mg/ml trypsin (purchased as lyophilized powder from Sigma-Aldrich) at 37° C. overnight in a deep 1.0-mL 96-well plate on thermomixer C (600 rpm) to cleave the peptide component and release the PMO. 40 μL of 2.5 nM oligonucleotide probe in hybridization buffer (with 0.1% serum) was added to each well. The plate was then sealed, incubated at 65° C. for 15 minutes (600 rpm), and allowed to cool at room temperature for 15 minutes. […] The intensity of fluorescence at 444 nm excitation and 555 nm emission was measured by a […] SpectraMax MT5 microplate reader.
In order to test the persistence of oligonucleotides, serum and various tissues were also analyzed two weeks post-last dose. Serum levels for both PMO and P-PMO treated mice were measured in the 1 nM range. At this time point the overall oligonucleotide levels in the tissues analyzed were also similar (FIG. 5a). […]

“PMO: 25-mer PMO antisense sequence for mouse dystrophin exon-23, 5′-GGCCAAACCTCGGCTTACCTGAAAT-3′ (SEQ ID NO: 1), not conjugated to a peptide (all phosphorodiamidate morpholino (PMO))” displayed a serum levels of approximately 1 nM. Further, the “overall oligonucleotide levels in the tissues analyzed, PMO compared with P-PMO” value (absolute concentrations (FIG. 5a)) was “similar”.
